Laboratory results from patent publication US20070010484A1, “Method for treating or inhibiting the effects of injuries or diseases that result in neuronal degeneration and method for promoting neurogenesis” (YEDA RESEARCH AND DEVELOPMENT CO. LTD., priority 2003, published 2007).

What was measured:
[1] = test system: retinal ganglion cells (RGCs); assay: Chronically high intra-ocular pressure (laser-induced glaucoma) rat model, RGC survival; assay type: in vivo, Lewis rats; settings: chronic IOP rats
Description: Induction of chronically high intra-ocular pressure: Blockage of aqueous outflow causes an increase in IOP, which results in RGC death (Schori et al., 2001 and Bakalash et al., 2002). […] The laser beam, which was directed at three of the four episcleral veins and at 270 degrees of the limbal plexus, was applied with a power of 1 watt for 0.2 s, producing a spot size of […] at the episcleral veins and […] at the limbal plexus. At a second laser session 1 week later, the same parameters were used except that the spot size was […] for all applications, this time the radiation was directed towards all four episcleral veins and 360 degrees of the limbal plexus (Schori et al., 2001).
Anatomical assessment of retinal damage caused by the increase in IOP: The hydrophilic neurotracer dye dextran tetramethylrhodamine (Rhodamine Dextran) (Molecular Probes, Oreg., USA) was applied directly into the intra-orbital portion of the optic nerve. […] RGCs were counted under magnification of ×800 in a Zeiss fluorescent microscope. Four fields from each retina were counted, all with the same diameter (0.076 mm^2) and located at the same distance from the optic disc (Kipnis et al., 2001; and Yoles et al., 2001). […] RGCs were counted by an observer who was blinded to the identity of the retinas. […]

[2] = test system: delayed-type hypersensitivity response in mice; assay: Delayed-type hypersensitivity (DTH) assay, ear swelling; assay type: in vivo; settings: oxazalone-sensitized Balb/c mice, most efficient concentration of 1 μg/ml, relative to untreated
Protocol: Assay for delayed-type hypersensitivity. Groups of female inbred Balb/c mice (n=4 per group) were sensitized with 2% oxazalone (100 μl;) dissolved in acetone/olive oil (4:1 (vol/vol)) applied topically on the shaved abdominal skin. A delayed-type hypersensitivity (DTH) response was elicited 5 days later by challenge with 0.5% oxazalone in acetone/olive oil (10 μl applied topically to each side of one ear, and measured with an engineer's micrometer (Mitutoyo, Elk Grove Village, Ill., Tokyo, Japan)). Immediately before and 24 h after antigen challenge, the marked area was measured again.

IGF-1 = IGF-1 expression in primary microglial cultures, immunocytochemistry; assay type: cell-based, C57Bl/6J mice
Protocol: Primary microglial culture. Brains from neonatal (P0-P1) C57Bl/6J mice were stripped of their meninges and minced with scissors under a dissecting microscope (Zeiss, Stemi DV4, Germany) in Leibovitz-15 medium (Biological Industries, Beit Ha-Emek, Israel). After trypsinization (0.5% trypsin, 10 min, 37° C./5% CO2), the tissue was triturated. The cell suspension was washed in culture medium for glial cells (DMEM supplemented with 10% fetal calf serum (FCS; Sigma-Aldrich, Rehovot, Israel), 1-glutamine (1 mM), sodium pyruvate (1 mM), penicillin (100 U/ml), and streptomycin ([…])) and cultured at 37° C./5% CO2 in 75-cm2 Falcon tissue-culture flasks (BD Biosciences) coated with poly-D-lysine (PDL) ([…]; Sigma-Aldrich, Rehovot) in borate buffer (2.37 g borax and 1.55 g boric acid dissolved in 500 ml sterile water, pH 8.4) for 1 h, then rinsed thoroughly with sterile, glass-distilled water. Half of the medium was changed after 6 h in culture and every 2nd day thereafter, starting on day 2, for a total culture time of 10-14 days. […]

NF-κB = assay: Western blot of NF-κB in T-cell nuclear extracts; assay type: cell-based, human; settings: T cells activated by anti-CD3 Ab
Protocol: Western blot analysis of T-cell nuclear extracts. Purified T cells (5×10^6) were preincubated for 2 h with different concentrations of CSPG-DS. The cells were then replated at the same CSPG-DS concentration on 24-well plates pre-coated for 24 h with anti-CD3 mAb. The T cells were lysed in 10 mM HEPES, 1.5 mM MgCl2, 1 mM dithiothreitol, 1 mM PMSF, and 0.5% Nonidet P-40 (buffer A). The lysates were incubated on ice for 10 min and centrifuged at 2000 rpm for 10 min at 4° C. The supernatants (cytoplasmic extracts) were transferred and the pellets (nuclei) were suspended in buffer containing 30 mM HEPES, 450 mM NaCl, 25% glycerol, 0.5 mM EDTA, 6 mM dithiothreitol, 12 mM MgCl2 1 mM PMSF, 10 μg/ml leupeptin, 10 μg/ml pepstatin, and 1% phosphatase inhibitor cocktail (buffer B), and the suspension was incubated on ice for 30 min. The lysates were cleared by centrifugation (30 min, 14×10^3 rpm, 4° C.), and the resulting supernatants were analyzed for protein content. Sample buffer was added, the mixture was boiled, and the samples containing equal amounts of proteins were separated on 10% SDS-PAGE gel and transferred to nitrocellulose membranes. […]

## CC(=O)N[C@H]1C(O)O[C@H](COS(=O)(=O)O)[C@H](O)[C@@H]1O[C@@H]1OC(C(=O)O)=C[C@H](O)[C@H]1O (stereo partly drawn) [CSPG-DS, 2-acetoamido-2-deoxy-3-O-(β-D-gluco-4-enepyranosyluronic acid)-6-O-sulfo-D-galactose]
[1]; eye drops 20 μg/ml (5 x 50 μl), every other day between day 7 and day 14, counted at three weeks, n=6
  viable RGCs per mm^2: 1924±191 RGCs per mm^2
[1]; intravenous, every other day between day 7 and day 14 after first laser session, n=5
  viable RGCs per mm^2: 2063±215 RGCs per mm^2
[2]
  reduction in DTH response: 40%
IGF-1; microglia pre-incubated with CSPG-DS (25 or 50 μg/ml) 1 h, then LPS 24 h
  LPS-induced suppression of IGF-I expression: attenuated
IGF-1; mouse primary microglia
  IGF-1 expression by microglia: high levels
NF-κB
  NF-κB levels in nuclei: reduction
